Ends that are not written are not given here.
Tests used:
[1] = system: SNAP-GLP-1R; experiment: Palmitoylation assay, SNAP-GLP-1R; assay type: cell-based, human
Protocol: For the detection of palmitoylated GLP-1Rs, cells were stimulated with 100 nM of the indicated agonist for 10 min and, when appropriate, pretreated with 10 μM BETP for 5 min (and throughout the agonist stimulation period) or overnight with 200 μM of the palmitoylation inhibitor 2-BP. Isolation of palmitoylated proteins was performed with the CAPTUREome S-Palmitoylated Protein Kit (Badrilla), following the manufacturer’s instructions. […] Key steps include blocking of free thiol groups with a blocking reagent, cleavage of thioester linkages to release the palmitate group, and capture of newly liberated thiols with the CAPTUREome capture resin. Briefly, cells were lysed and free thiols blocked in the manufacturer’s blocking buffer at 40 °C for 4 h with constant vortexing. Proteins were then precipitated with cold acetone for 20 min at −20 °C. Following centrifugation at 16,000g for 5 min, the pellet was extensively washed with 70% cold acetone and resuspended in the manufacturer’s binding buffer. Approximately 10% of the soluble lysate was saved as the input fraction (IF). Prewashed CAPTUREome capture resin was added to the lysates. To this mixture, either the thioester cleavage or the acyl-preservation reagents were added. Resins were washed five times with the manufacturer’s binding buffer. […]

[2] = system: wt or C438A SNAP-GLP-1R in HEK293 cells; experiment: Internalization of C438A versus wt SNAP-GLP-1R with BETP (confocal, DERET); assay type: cell-based, human; conditions: 100 nM exendin-phe1, 10 μM BETP
[3] = system: GLP-1R; conditions: cited from earlier work
[4] = system: GLP-1R; conditions: cited from earlier work; remark: listed apart in the source
Text: To further elucidate the mechanism by which BETP potentiates GLP-1R responses, we examined the relative contributions of GLP-1R palmitoylation, β-arrestins, and cholesterol-dependent membrane compartmentalization to its effect.

[5] = system: cellular cholesterol in HEK293, CHO-K1, INS-1 832/3, MIN6B1 cells; experiment: Cholesterol depletion (filipin / Amplex Red); assay type: cell-based; parameters: unit not given here
Protocol: Cells were treated with or without MβCD as above. For cholesterol labeling, filipin staining was carried out with the Cell-Based Cholesterol Assay Kit (Abcam). For quantification of cholesterol levels, lipid was extracted using butanol as described. Briefly, the washed cell pellet was left in 250 μl butanol overnight at 4 °C, and the organic layer was aspirated, placed in a microplate, and allowed to evaporate to dryness. The lipid film was redissolved in 1% Triton X-100, and cholesterol concentration was determined using the Amplex Red Cholesterol Assay Kit (Thermo Fisher), followed by normalization to protein content of the cell pellet determined by BCA assay.

[6] = system: human GLP-1R (SNAP-GLP-1R) in MIN6B1 cells; experiment: SNAP-GLP-1R partitioning into detergent-resistant (raft) membrane fractions; assay type: cell-based; conditions: 2 min stimulation, versus vehicle
[7] = system: SNAP-GIPR in CHO-K1 cells; conditions: 100 nM GIP, 10 min
[8] = system: SNAP-GIPR in HEK293 cells; conditions: GIP 100 nM
Text: These concentrations were selected because they provided optimum signal intensity at both measurement wavelengths. […] TR-FRET was sequentially measured after agonist addition.

[9] = molecular target: T1, endogenous GLP-1R in INS-1 832/3 cells (Rattus norvegicus, UniProt P32301); experiment: HTRF cAMP, wt INS-1 832/3 cells; assay type: cell-based; conditions: MβCD; wild-type INS-1 832/3 cells
T1 construct: endogenous in cells
T1 sequence (P32301 22-463): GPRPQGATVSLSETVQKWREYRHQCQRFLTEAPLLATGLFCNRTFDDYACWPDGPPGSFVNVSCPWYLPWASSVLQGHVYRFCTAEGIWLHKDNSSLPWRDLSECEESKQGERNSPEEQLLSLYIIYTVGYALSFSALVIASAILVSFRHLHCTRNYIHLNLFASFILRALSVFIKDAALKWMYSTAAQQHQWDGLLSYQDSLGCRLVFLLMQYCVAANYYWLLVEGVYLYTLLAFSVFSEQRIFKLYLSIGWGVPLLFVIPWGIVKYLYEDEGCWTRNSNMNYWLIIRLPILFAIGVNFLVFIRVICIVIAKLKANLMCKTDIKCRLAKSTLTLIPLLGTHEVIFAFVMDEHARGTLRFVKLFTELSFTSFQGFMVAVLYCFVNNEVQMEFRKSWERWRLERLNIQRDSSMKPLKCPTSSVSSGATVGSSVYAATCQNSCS
Protocol: Cells were treated in white microplates with agonist, with or without isobutylmethylxanthine (IBMX) as indicated to inhibit phosphodiesterases, for the indicated period of time before total cellular cAMP determination by HTRF (Cisbio cAMP Dynamic 2).

[10] = system: SNAP-GLP-1R; experiment: SNAP-GLP-1R internalization by confocal microscopy; assay type: cell-based, human
[11] = system: SNAP-GLP-1R in HEK293 cells; experiment: NR12S TR-FRET (liquid-ordered localization); assay type: cell-based, human; conditions: for concentration response with MβCD (sheet S2H): agonist not named
[12] = system: SNAP-GIPR in INS-1 832/3 cells; experiment: SNAP-GIPR internalization by confocal microscopy; assay type: cell-based; conditions: MβCD 10 mM 1 h; 100 nM GIP 1 h
Protocol: For confocal microscopy, cells were labeled at 37 °C with 1 μM of the indicated SNAP-tag fluorescent probe (New England Biolabs) in full media, stimulated with agonists for the indicated times, fixed in 4% paraformaldehyde, mounted in Prolong Diamond antifade reagent with 4,6-diamidino-2-phenylindole (Life Technologies), imaged with a Zeiss LSM-780 inverted confocal laser-scanning microscope in a ×63/1.4 numerical aperture oil-immersion objective from the Facility for Imaging by Light Microscopy (FILM) at Imperial College London, and analyzed in Fiji. […] Images were acquired with an ORCA-Flash 4.0 camera (Hamamatsu) and Metamorph software (Molecular Devices), and colocalization was measured by Manders’ coefficient analyzed using Coloc 2 plugin in Fiji.

[13] = system: SNAP-GLP-1R in HEK293 cells; experiment: Surface SNAP-GLP-1R labeling by Lumi4-Tb; assay type: cell-based, human; conditions: MβCD treatment

Molecule: CC[S+]([O-])c1nc(-c2cccc(OCc3ccccc3)c2)cc(C(F)(F)F)n1 (centres unmarked) [BETP, 4-(3-benzyloxyphenyl)-2-ethylsulfinyl-6-(trifluoromethyl)pyrimidine]
- effect on exendin-4-induced palmitoylation (in words) ([1]; CHO SNAP-GLP-1R cells, BETP 10 μM, 100 nM exendin-4 10 min): significant reduction in exendin-4-induced palmitoylation
- effect of BETP on internalization of C438A (in words) [2]: comparable to that of wild-type receptors
- potentiation of weak agonist GLP-1(9–36)NH2 (in words) [3]: markedly augment responses
- potentiation of weak agonist oxyntomodulin (in words) [3]: markedly augment responses
- covalent binding site (in words) [4]: covalently bind two intracellular GLP-1R cysteine residues (347 and 438

Molecule: CC(C)CCC[C@@H](C)[C@H]1CC[C@H]2[C@@H]3CC=C4C[C@@H](O)CC[C@]4(C)[C@H]3CC[C@]12C [Chol]
- cellular cholesterol ([5]; CHO-K1, replicate 1): 666.594
- cellular cholesterol ([5]; CHO-K1, replicate 2): 793.376
- cellular cholesterol ([5]; CHO-K1, replicate 3): 793.376
- cellular cholesterol ([5]; HEK293, replicate 1): 549.236
- cellular cholesterol ([5]; HEK293, replicate 2): 621.505
- cellular cholesterol ([5]; HEK293, replicate 3): 643.5
- cellular cholesterol ([5]; INS-1 832/3, replicate 1): 653.543
- cellular cholesterol ([5]; INS-1 832/3, replicate 2): 706.063
- cellular cholesterol ([5]; INS-1 832/3, replicate 3): 690.314
- cellular cholesterol ([5]; MIN6B1, replicate 1): 989.644
- cellular cholesterol ([5]; MIN6B1, replicate 2): 1174.28
- cellular cholesterol ([5]; MIN6B1, replicate 3): 1186.59

Molecule: CCCCCCCCCCCCCCCC(=O)O [palmitate]
- GLP-1R palmitoylation (in words) ([1]; MIN6B1 SNAP-GLP-1R cells, excess palmitate (200 μM palmitate/BSA overnight)): greatly enhanced

Molecule: GLP-1(7–36)NH2: endogenous GLP-1R agonist (HAEGTFTSDVSSYLEGQAAKEFIAWLVKGR-NH2; UniProt P01275 98-127, looked up)
- SNAP-GLP-1R raft recruitment (in words) [6]: Increased enrichment of poly-glycosylated GLP-1Rs in membrane raft fractions

Molecule: glucose-dependent insulinotropic polypeptide [GIP]
- GIPR palmitoylation (in words) [7]: not further increased by GIP stimulation
- SNAP-GIPR clustering (in words) [8]: no detectable increase upon GIP addition

Molecule: methyl-β-cyclodextrin [MβCD]
- effect on cAMP production (in words) [9]: reduced by MβCD
- effect on BETP-induced internalization of exendin-phe1-stimulated SNAP-GLP-1R (in words) ([10]; MIN6B1, MβCD 10 mM 1 h preincubation): inhibited this process to the same extent as for exendin-4
- effect on exendin-4-induced internalization (in words) ([10]; MβCD 10 mM 1 h, 100 nM exendin-4, 15 min, beta and nonbeta cells): marked inhibition of exendin-4-induced SNAP-GLP-1R internalization
- effect on SNAP-GLP-1R endocytosis (in words) ([10]; MβCD, wt and β-arrestin-less HEK293, 100 nM exendin-4, 15 min): substantially inhibited by MβCD irrespective of β-arrestin status
- effect on NR12S-linked TR-FRET (in words) ([11]; MβCD, S2H): effective in reducing both basal and exendin-4-induced NR12S-linked increases in TR-FRET
- concentration response with MβCD (sheet S2H) ([11]; log conc -6, replicate 1): 33.0955
- concentration response with MβCD (sheet S2H) ([11]; log conc -6, replicate 2): 36.4407
- concentration response with MβCD (sheet S2H) ([11]; log conc -6, replicate 3): 38.4994
- concentration response with MβCD (sheet S2H) ([11]; log conc -6.47712, replicate 1): 34.0966
- concentration response with MβCD (sheet S2H) ([11]; log conc -6.47712, replicate 2): 36.1901
- concentration response with MβCD (sheet S2H) ([11]; log conc -6.47712, replicate 3): 32.7645
- concentration response with MβCD (sheet S2H) ([11]; log conc -6.95424, replicate 2): 32.2917
- concentration response with MβCD (sheet S2H) ([11]; log conc -6.95424, replicate 3): 33.0671
- concentration response with MβCD (sheet S2H) ([11]; log conc -7.43136, replicate 1): 24.1893
- concentration response with MβCD (sheet S2H) ([11]; log conc -7.43136, replicate 2): 31.793
- concentration response with MβCD (sheet S2H) ([11]; log conc -7.90849, replicate 2): 35.2618
- concentration response with MβCD (sheet S2H) ([11]; log conc -7.90849, replicate 3): 26.4888
- concentration response with MβCD (sheet S2H) ([11]; log conc -8.38561, replicate 3): 33.8275
- concentration response with MβCD (sheet S2H) ([11]; log conc -8.86273, replicate 1): 30.8645
- concentration response with MβCD (sheet S2H) ([11]; log conc -8.86273, replicate 2): 27.0998
- concentration response with MβCD (sheet S2H) ([11]; log conc -8.86273, replicate 3): 36.96
- concentration response with MβCD (sheet S2H) ([11]; log conc -10, replicate 1): 23.1185
- concentration response with MβCD (sheet S2H) ([11]; log conc -10, replicate 2): 30.0361
- concentration response with MβCD (sheet S2H) ([11]; log conc -10, replicate 3): 37.2206
- effect on GIPR endocytosis (in words) [12]: virtually abolished after MβCD treatment
- effect on surface SNAP-GLP-1R expression (in words) [13]: did not alter receptor surface SNAP-GLP-1R expression
- cellular cholesterol ([5]; CHO-K1, replicate 1): 39.7439
- cellular cholesterol ([5]; CHO-K1, replicate 2): 158.5
- cellular cholesterol ([5]; CHO-K1, replicate 3): 99.7412
- cellular cholesterol ([5]; HEK293, replicate 1): 170.419
- cellular cholesterol ([5]; HEK293, replicate 2): 186.214
- cellular cholesterol ([5]; HEK293, replicate 3): 179.148
- cellular cholesterol ([5]; INS-1 832/3, replicate 1): 159.866
- cellular cholesterol ([5]; INS-1 832/3, replicate 2): 177.786
- cellular cholesterol ([5]; INS-1 832/3, replicate 3): 167.411
- cellular cholesterol ([5]; MIN6B1, replicate 1): 202.183
- cellular cholesterol ([5]; MIN6B1, replicate 2): 224.442
- cellular cholesterol ([5]; MIN6B1, replicate 3): 240.208
